Here are results for three molecules from US20220362386A1, “LIQUID COMPOSITIONS COMPRISING A LEVODOPA AMINO ACID CONJUGATE AND USES THEREOF” (NeuroDerm, Ltd., priority 2019, published 2022).

A short description of data set [1]: In-vitro metabolism of LDAA compounds using liver microsomes. Format: in vitro ADME, human. The following applies: for half-life at 0.1 μM: pH 7.4, 1.0E−07M, 0.1 mg/mL microsomal protein. The procedure:
The stability of test compounds in pooled human liver microsomes was determined on 96-well plates, wherein the test compounds were quantified at five time points by HPLC-MS/MS analysis. The assay matrix included mixed gender and a pool of 50 human liver microsomes, wherein the final microsomal protein concentration was 0.1 mg/mL. The test concentration was 0.1 μM with 0.01% DMSO, 0.25% acetonitrile and 0.25% methanol.
Each test compound was pre-incubated for five minutes with pooled liver microsomes in phosphate buffer (pH 7.4) in a 37° C. shaking water-bath. The reaction was initiated by adding a nicotinamide adenine dinucleotide phosphate (NADPH)-generating system and incubating for 0, 15, 30, 45, and 60 min. The reaction was stopped by transferring the incubation mixture to acetonitrile/methanol. Samples were then mixed and centrifuged, wherein the supernatants were used for HPLC-MS/MS analysis.
In each assay the four reference compounds propranolol, imipramine, verapamil and terfenadine were tested, wherein the propranolol and the imipramine are known to be relatively stable, while the verapamil and the terfenadine are known to be readily metabolized in human liver microsomes.
All samples were analyzed by HPLC-MS/MS using selected reaction monitoring. The HPLC system consisted of a binary LC pump with autosampler, a C-18 column, and a gradient. The conditions were adjusted when necessary.
Peak areas corresponding to the test compound were recorded. The amount of each compound remaining was calculated by comparing the peak area at each time point to time zero. The half-life is calculated from the slope of the initial linear range of the logarithmic curve of compound remaining (%) vs. time, assuming first order kinetics. In addition, the intrinsic clearance (Clint) was calculated from the half-life using the following equation:
Clint(μL/min/mg protein)=0.693/(t1/2×protein concentration)
The results of the in-vitro human liver microsome metabolism tests of various LDAA compounds (10^−7M), in their TFA salt forms, are provided in FIG. 1 and in Table 17, which presents the % of the compound remaining at times 0, 15, 30, 45 and 60 minutes, two half-life measurements and the Clint, calculated as detailed above.

A further data set is described as follows: in vitro. The following applies: human. The procedure:
Caco-2 cells are human intestinal epithelial cells derived from a colorectal adenocarcinoma.
The assays are performed in both the apical to basolateral (A-B) and the B-A direction. The test compound is prepared at 10 μM in HBSS-HEPES (pH 7.4) with a final DMSO concentration of 1%. The working solution is centrifuged, and the supernatant is added to the donor side. The assay plate is incubated at 37° C. with gentle shaking for 60 min or 40 min for the A-B or B-A assay, respectively. For Pgp substrate assessment, the assays are run with and without 100 μM verapamil on both the A and B sides. For BCRP substrate assessment, the assays are run with and without 10 μM Ko143 on both the A and B sides. For MRP2 substrate assessment, the assays are run with and without 100 μM MK571 on both the A and B sides. Samples are aliquoted from the donor side at time zero and the end point, and from the receiver side at the end point.
Propranolol (highly permeable), labetalol (moderately permeable), ranitidine (poorly permeable), and colchicine (P-glycoprotein substrate), estrone-3-sulfate (BCRP substrate), or CDCF (MRP2 substrate) are included in each assay.
Samples are analyzed by HPLC-MS/MS using selected reaction monitoring. The HPLC system consists of a binary LC pump with an autosampler, a C-18 column, and a gradient. Conditions may be adjusted when necessary.
Fluorescein permeability is assessed in the A-B direction at pH 7.4 on both sides after the permeability assay with the test compound. The cell monolayer with a fluorescein permeability of less than 1.5×10−6 cm/s is considered intact.
The apparent permeability coefficient (Papp) of the test compound and its recovery are calculated as follows: […]
A is the surface area of the cell monolayer (0.11 cm^2). C is concentration of the test compound, expressed as peak area. D denotes donor and R is receiver. 0, mid, and end denote time zero, mid-point, and end of the incubation. Δt is the incubation time. V is the volume of the donor or receiver.
The permeability capabilities of the several LDAA compounds, in their TFA salt form, were determined using the Caco-2 B-A method.

The nature of data set [2]: In-vitro absorption, Caco-2 A-B permeability. Particulars: human, Caco-2, pH 7.4, Caco-2 A-B, without verapamil; for Papp A→B at 60 min, 10 μM: 1.0E−05M. Format: in vitro ADME, human. The procedure: (§1) Conditions may be adjusted when necessary.
(§2) D denotes donor and R is receiver. […] V is the volume of the donor or receiver.
(§3) The test was performed with and without verapamil, which is a permeation inhibitor, and the results are presented in Tables 22 (without verapamil) and 34 (with verapamil).
For orientation: Caco-2 cells form a polarised layer with tight junctions and transporters.

The subject of the next data set is P-gp. In words: In-vitro absorption, Caco-2 A-B permeability. The class given is in vitro ADME, human. The following applies: human, Caco-2, pH 7.4, with verapamil 100 μM on both the A and B sides, Caco-2 A-B, in the presence of verapamil. The procedure:
as §1, §2, §3

A further data set can be described thus: physchem. Format: physicochemical. The procedure: The volume of the solution in the bottle was adjusted to 5 ml, either by adding solvent, or be removing any residual solution, after which the bottle was tightly closed and left at 25° C. for stability observation. It is noted that throughout Example 4, the concentrations in the tables below were calculated taking into account the amount of solvent added or the solution removed, in which event, the calculations were performed regarding the 5 ml+(amount removed) as the volume of the solution. It is further noted that throughout this document, unless mentioned otherwise, the stability was measured using the manual visual inspection Bosch apparatus MIH DX, at a magnification of ×1.75.
The LD-Tyr free base, prepared according to Example 2, was added to a solvent, as detailed in Table 7 below, and neutralized by addition of NaOH. When maximum solubility was observed, the solution was filtered and then transferred to a bottle that was previously weighed and flushed with nitrogen. The volume of the solution in the bottle was adjusted to 5 ml, after which the bottle was tightly closed and left at 25° C. for stability observation.
When maximum solubility was observed, the solution was filtered and then transferred to a bottle that was previously weighed and flushed with nitrogen. The volume of the solution in the bottle was adjusted to 5 ml, after which the bottle was tightly closed and left at 25° C. for stability observation.
(§4) When maximum solubility was observed, the solution was filtered and then transferred to a bottle that was previously weighed and flushed with nitrogen. The volume of the solution in the bottle was adjusted to 5 ml, after which the bottle was tightly closed and stored at 25° C. for stability observation.
as §4
LD-Lys TFA salt, prepared according to Example 1, and which comprises two equivalents of TFA, was added to a solvent, as detailed in Table 11 below, and neutralized by addition of NaOH. When maximum solubility was observed, the solution was filtered and then transferred to a bottle that was previously weighed and flushed with nitrogen. The volume of the solution in the bottle was adjusted to 5 ml, after which the bottle was tightly closed and stored at 25° C. for stability observation.
As detailed above regarding other solutions, with the LD-Tyr free base when maximum solubility was observed, the solution was filtered and then transferred to a bottle that was previously weighed and flushed with nitrogen. The volume of the solution in the bottle was adjusted to 5 ml, after which the bottle was tightly closed and left at 25° C. for stability observation.
LD-Lys HCl salt, prepared according to Example 3, was added to a solvent, as detailed in Table 13 below, and neutralized by the addition of NaOH. When maximum solubility was observed, the solution was filtered and then transferred to a bottle that was previously weighed and flushed with nitrogen. The volume of the solution in the bottle was adjusted to 5 ml, after which the bottle was tightly closed and left at 25° C. for stability observation.

Setting [3] is: incubation time 0 minutes, 1.0E−07M.
Setting [4] is: incubation time 15 minutes, 1.0E−07M.
The mark [5] stands for this setting: incubation time 30 minutes, 1.0E−07M.
Setting [6] is: incubation time 45 minutes, 1.0E−07M.
The mark [7] stands for this setting: incubation time 60 minutes, 1.0E−07M.
The mark [8] stands for this setting: read-out: Percent Recovery Mean.
Setting [9] is: solvent 0.75% CD solution, pH 8.65.
Where [10] appears, read: solvent 0.63% CD solution, pH 7.71.

Where a name gives a salt, the structure may show the parent alone. Read-outs that look alike come from different tables or passages of the source. Non-standard residues stand in square brackets, D forms with d. Residues, ends and D or L forms follow the SMILES beside them. Dopa = N[C@@H](Cc1ccc(O)c(O)c1)C(=O)O

On to `N[C@@H](Cc1ccc(O)c(O)c1)C(=O)NCC(=O)O` [LD-Gly TFA salt, Levodopa Glycine TFA Salt], for which the half-life (as a rule, the time in which the quantity being followed falls by half) at 0.1 μM in data set [1] (both sexes, human, pooled human liver microsomes, read-out: Half-Life (minute) 1st) was 54.5 min; in data set [1] (both sexes, human, pooled human liver microsomes, read-out: Half-Life (minute) 2nd), 54.1 min; in data set [1] (both sexes, human, pooled human liver microsomes, read-out: Half-Life (minute) Mean), 54 min. Also, the microsomal CLint (as a rule, the rate of metabolic loss divided by the concentration) at 0.1 μM in data set [1] (both sexes, human, pooled human liver microsomes, pH 7.4, calculated from the half-life, 1.0E−07M) is 128 µL/min/mg. Also, the “% Compound Remaining 1st” value is given as 100% in data set [1] (setting [3]); 103.7% in data set [1] (setting [4]); 86.7% in data set [1] (setting [5]); 57.5% in data set [1] (setting [6]); 51.7% in data set [1] (setting [7]). Moreover, the “% Compound Remaining 2nd” value in data set [1] (setting [3]) is reported as 100%; in data set [1] (setting [4]), 108.1%; in data set [1] (setting [5]), 77.9%; in data set [1] (setting [6]), 56.4%; in data set [1] (setting [7]) it was 52.9%. Besides, the “% Compound Remaining Mean” value in data set [1] (setting [3]) is given as 100%; in data set [1] (setting [4]), 106%; in data set [1] (setting [5]), 82%; in data set [1] (setting [6]) it was 57%; in data set [1] (setting [7]), 52%. The recovery at 40 min, 10 μM in “in vitro” (Caco-2, pH 7.4, Percent Recovery 1st) was 93%; in “in vitro” (Caco-2, pH 7.4, Percent Recovery 2nd), 78%; in “in vitro” (Caco-2, pH 7.4, Percent Recovery Mean), 85%. Moreover, the Papp B→A (commonly the apparent permeability from the basolateral to the apical side of a cell layer) at 40 min, 10 μM in the data set “in vitro” (Caco-2, pH 7.4, Permeability 1st) worked out at 3.8 nm/s; in the data set “in vitro” (Caco-2, pH 7.4, Permeability 2nd), 3.3 nm/s; in the data set “in vitro” (Caco-2, pH 7.4, Permeability Mean) it was 4 nm/s. For the same molecule, the Papp A→B at 60 min, 10 μM in data set [2] (read-out: Permeability 1st) is 0.3 nm/s; in data set [2] (read-out: Permeability 2nd), 0.2 nm/s. The recovery at 60 min, 10 μM was determined as 65% in data set [2] (read-out: Percent Recovery 1st); 62% in data set [2] (read-out: Percent Recovery 2nd); 64% in data set [2] (setting [8]); 60% with P-gp (read-out: Percent Recovery 1st); 59% in the data set on P-gp (read-out: Percent Recovery 2nd); 59% in the data set with P-gp (setting [8]).

Regarding `N[C@@H](Cc1ccc(O)c(O)c1)C(=O)N[C@@H](Cc1ccc(O)cc1)C(=O)O` [LD-Tyr HCl salt] (H-[Dopa]-Tyr-OH), the Appearance result was “clear” in “physchem” (0.75% CD solution, pH 8.65, 297 mg/ml salt) and “clear” in the data set “physchem” (WFI, pH 8.46, 300 mg/ml salt). The “LD-Tyr HCl salt concentration” value in the data set “physchem” (setting [9]) was 297 mg/mL; in “physchem” (solvent WFI, pH 8.46) it was 300 mg/mL. Also, the “LD-Tyr free base Concentration” value in the data set “physchem” (setting [9]) stood at 257 mg/mL; in the data set “physchem” (solvent WFI, pH 8.46), 260 mg/mL.

As to `N=C(N)NCCC[C@H](NC(=O)[C@@H](N)Cc1ccc(O)c(O)c1)C(=O)O` [LD-Arg HCl salt], the Appearance entry in “physchem” (0.2% NaBis in WFI, pH 7.02, 550 mg/ml salt) is reported as “clear”; in the data set “physchem” (0.63% CD solution, pH 7.71, 520 mg/ml salt) it was “clear”; in “physchem” (WFI, pH 7.3, 500 mg/ml salt), “clear”. Moreover, in “physchem” (25 °C, aqueous buffer, thermodynamic from solid, solvent 0.2% NaBis in WFI, pH 7.02), the thermodynamic solubility (usually solubility found after equilibrating the solid with the medium) amounted to 550 mg/mL. The “LD-Arg free base Concentration” value was 440 mg/mL in the data set “physchem” (solvent 0.2% NaBis in WFI, pH 7.02); 420 mg/mL in “physchem” (setting [10]); 390 mg/mL in the data set “physchem” (solvent WFI, pH 7.3). Also, the “LD-Arg HCl salt concentration” value in “physchem” (setting [10]) amounted to 520 mg/mL; in the data set “physchem” (solvent WFI, pH 7.3), 500 mg/mL.
